Measured values as given in US7842701B2, “Pyrazoloquinolone derivative and use thereof” (Takeda Pharmaceutical Company Limited, priority 2004, dated 2010).
pIC50: −log10 of the molar value.

biological target: T1, Src tyrosine kinase (p60^c-src) (Homo sapiens, UniProt P12931); experiment: Src tyrosine kinase inhibition (α-screen phosphotyrosine assay); type: biochemical; conditions: 30 ng/ml p60^c-src, 100 ng/ml biotin-labeled poly(Glu:Tyr=4:1), 2 μM ATP, room temperature 10 minutes; value given only as order of magnitude; read-out: IC50 (concentration required for 50% inhibition of the enzyme activity)
T1 construct: purchased Upstate Biotechnology, Inc
T1 sequence (P12931 whole entry): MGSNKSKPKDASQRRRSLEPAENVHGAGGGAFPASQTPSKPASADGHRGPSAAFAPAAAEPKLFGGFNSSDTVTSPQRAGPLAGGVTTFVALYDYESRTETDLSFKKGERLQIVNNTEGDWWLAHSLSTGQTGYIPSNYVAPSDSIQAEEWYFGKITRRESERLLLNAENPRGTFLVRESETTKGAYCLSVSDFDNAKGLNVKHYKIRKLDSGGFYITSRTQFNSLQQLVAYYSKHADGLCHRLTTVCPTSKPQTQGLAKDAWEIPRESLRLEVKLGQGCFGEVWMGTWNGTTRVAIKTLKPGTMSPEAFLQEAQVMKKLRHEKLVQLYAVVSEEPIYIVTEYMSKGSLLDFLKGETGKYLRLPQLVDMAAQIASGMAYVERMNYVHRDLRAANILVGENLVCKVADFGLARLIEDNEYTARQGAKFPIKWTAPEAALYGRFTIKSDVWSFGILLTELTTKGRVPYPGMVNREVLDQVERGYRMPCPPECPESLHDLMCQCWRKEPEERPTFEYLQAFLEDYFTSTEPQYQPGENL
Method: Inhibition activity of the test compound for Src tyrosine kinase was measured by the method described as below. p60^c-src (a preparation purified partically, purchased from Upstate Biotechnology, Inc.) was usded as an enzyme. A biotin-labeled polypeptide (co-polymer of glutamic acid and tyrosine, glutamic acid:tyrosine=4:1, purchased from Nihon Schering K. K. (Japan), prepared by CIS Bio International) was used as a substrate. A solution having composition of 50 mM Tris-HCl (pH 7.5), 5 mM of MgCl2, 5 mM of MnCl2, 2 mM of dithiothreitol, 0.01% of Tween-20 was used as a buffer solution for measuring the activity of tyrosine-kinase. The amount of phosphorylation of tyrosine in the substrate after the reaction was measured by the method using phosphotyrosine recognition antibody. In the concrete, α-screen phosphotyrosine (p-tyr-100) assay kit (manufactured by PerkinElmer, Inc.) was used. Fusion™ (manufactured by PerkinElmer, Inc.) was used as a plate reader. The test compound was dissolved in dimethylsulfoxide, and diluted with the above-mentioned buffer solution for measuring the activity of tyrosine-kinase. To 5 μl of the solution of test compound was added 10 μl of a buffer solution containing 75 ng/ml of the enzyme (p60 ^c-src) and 250 ng/ml of the substrate (biotin-labeled polypeptide), and then added 10 μl of a buffer solution containing 5 μM ATP, and then the tyrosine-kinase reaction was initiated. Accordingly the tyrosine-kinase reaction was meant by a kinase reaction in a solution containing the test compound having designated concentration, 30 ng/ml of p60^c-src, 100 ng/ml of polypeptide, 2 μM of ATP, 50 mM of Tris-HCl (pH 7.5), 5 mM of MgCl2, 5 mM of MnCl2, 2 mM of dithiothreitol and 0.01% of Tween-20, and the amount of the reaction liquid was 25 μl. After the reaction was continued at room temperature for 10 minutes, the kinase reaction was terminated by adding 25 μl of a solution containing 100 mM of EDTA-2 sodium salt (Ethylene Diamine Tetraacetic Acid, disodium salt), 62.5 mM of HEPES (pH 7.4), 250 mM of NaCl, 0.1% of Bovine Serum Albumin, 10 μg/ml of streptavidine donor beads for α-screen assay, 10 μg/ml of acceptor beads binding anti-phosphotyrosin recognition antibody PY-100 for α-screen assay (Anti-phosphotyrisine(P-Tyr-100) Acceptor beads), and then the binding reaction between phosphotyrosine recognition antibody and phosphorylating tyrosine was continued at room temperature for 16 hours, and then the amount of tyrosine phosphorylation was measured by using plate reader Fusion™.
Inhibition rate (%)=100-[(count of the test compound-blank)/(control-blank)]×100 […]

pIC50, ~9.00:
Nc1c2c(=O)[nH]c3ccccc3c2nn1-c1cc(O)ccc1Cl [Example 38, 3-amino-2-(2-chloro-5-hydroxyphenyl)-2,5-dihydro-4H-pyrazolo[4,3-c]quinolin-4-one]
Cc1ccc(O)cc1-n1nc2c(c1N)c(=O)[nH]c1ccccc12 [Example 37, 3-amino-2-(5-hydroxy-2-methylphenyl)-2,5-dihydro-4H-pyrazolo[4,3-c]quinolin-4-one]
Nc1c2c(=O)[nH]c3cc(NCCCN4CCC(O)CC4)ccc3c2nn1-c1cccc(O)c1 [Example 61, 3-amino-2-(3-hydroxyphenyl)-7-{[3-(4-hydroxy-1-piperidinyl)propyl]amino}-2,5-dihydro-4H-pyrazolo[4,3-c]quinolin-4-one]
Nc1c2c(=O)[nH]c3cc(NCCCN4CCOCC4)ccc3c2nn1-c1cccc(O)c1 [Example 62, 3-amino-2-(3-hydroxyphenyl)-7-{[3-(4-morpholinyl)propyl]amino}-2,5-dihydro-4H-pyrazolo[4,3-c]quinolin-4-one]
